Here are results for 17 molecules from ChEMBL document CHEMBL5325393, “A mini-review on synthesis and antiviral activity of natural product oxetanocin A derivatives” (Bioorg Med Chem, 2022).

The structures appear in SMILES notation. Converted amounts (≈) assume the structure as drawn. Where only a bound is given, the exact number is not on record here.

The subject of series [1] is Human immunodeficiency virus 1. In words: Antiviral activity against HIV-1 HTLV-IIIB infected in human MT4 cells assessed as inhibition of viral replication. To be noted: Human immunodeficiency virus 1, HTLV-IIIB. The series is classed as functional, organism-based.
Series [2] has as its system Human alphaherpesvirus 2. In words: Antiviral activity against thymidine kinase deficient HSV-2 assessed as inhibition of viral replication by plaque reduction assay. The series is classed as functional, organism-based. Background: Plaques are areas of infected cells; plaque reduction assays count them against a control.
The test system of series [3] is Human immunodeficiency virus. In words: Antiviral activity against HIV RF assessed as inhibition of viral growth. The note with it: Human immunodeficiency virus 1, RF. The series is classed as functional, organism-based.
Series [4] has as its system Human alphaherpesvirus 1. In words: Antiviral activity against lethal systemic HSV-1 123 infected in po dosed Swiss mouse model assessed as increase in animal survival administered as single double strength loading dose at 7 hrs post-inoculation and single strength dose at 23, 31, 47, 55, 71, 79 hrs post-inoculation and monitored for 21 days. The series is classed as functional. To be noted: time 21 day.

Series [5] concerns Human alphaherpesvirus 2. In words: Antiviral activity against HSV-2 186 infected in African green monkey Vero cells assessed as reduction in virus induced cytopathogenicity by plaque reduction assay. The series is classed as functional, organism-based. The note with it: Human alphaherpesvirus 2, 186, Vero. On the technique in general: Damage to the host cells serves as the signal in cytopathic effect assays.

A further series deals with Cytomegalovirus. As to the kind of experiment: Antiviral activity against CMV AD-169 infected in HEL cells assessed as reduction in virus plaque formation. The series is classed as functional, organism-based. To be noted: Human betaherpesvirus 5, AD-169, HEL.
In series [6] the test system is Human alphaherpesvirus 1. As to the kind of experiment: Antiviral activity against HSV-1 assessed as inhibition of viral growth. The series is classed as functional, organism-based.
Series [7] has as its system Human alphaherpesvirus 1. In words: Antiviral activity against thymidine kinase positive HSV-1 SC-16 infected in HFF cells assessed as reduction in viral replication incubated for 3 days by crystal violet staining based microplate reader analysis. The series is classed as functional, organism-based. To be noted: Human alphaherpesvirus 1, SC-16, HFF, 72 h.
In series [8] the test system is Human alphaherpesvirus 1. In words: Antiviral activity against thymidine kinase positive HSV-1 123 infected in HFF cells assessed as reduction in viral replication incubated for 3 days by crystal violet staining based microplate reader analysis. To be noted: Human alphaherpesvirus 1, 123, HFF, 72 h. The series is classed as functional, organism-based.
Series [9] has as its system Human alphaherpesvirus 1. In words: Antiviral activity against thymidine kinase positive HSV-1 E-377 infected in HFF cells assessed as reduction in viral replication incubated for 3 days by crystal violet staining based microplate reader analysis. The note with it: Human alphaherpesvirus 1, E-377, HFF, 72 h. The series is classed as functional, organism-based.
In series [10] the test system is Human alphaherpesvirus 2. As to the kind of experiment: Antiviral activity against HSV-2 assessed as inhibition of viral growth. The series is classed as functional, organism-based.
Series [11] has as its system Human alphaherpesvirus 1. As to the kind of experiment: Antiviral activity against HSV-1 KOS infected in African green monkey Vero cells assessed as reduction in virus induced cytopathogenicity by plaque reduction assay. The series is classed as functional, organism-based. To be noted: Human alphaherpesvirus 1, KOS.
For series [12], the system named is Human alphaherpesvirus 1. As to the kind of experiment: Antiviral activity against lethal intracerebral HSV-1 123 infected in po dosed Swiss mouse model assessed as increase in animal survival administered as single double strength loading dose at 7 hrs post-inoculation and single strength dose at 23, 31, 47, 55, 71, 79 hrs post-inoculation and monitored for 21 days. The note with it: time 21 day. The series is classed as functional.

For series [13], the system named is Human immunodeficiency virus. As to the kind of experiment: Antiviral activity against HIV assessed as inhibition of viral growth. The series is classed as functional, organism-based. The note with it: Human immunodeficiency virus 1.
In the next series the test system is HUVEC. As to the kind of experiment: Angiogenic activity against HUVEC cells assessed as relative area of tube formation at 100 uM incubated for 10 days by tube formation assay. The note with it: time 10 day. The series is classed as functional, Homo sapiens.
Series [14] deals with Human immunodeficiency virus 1. In words: Antiviral activity against HIV-1 assessed as inhibition of viral replication. The series is classed as functional, organism-based.
Series [15] has as its system Hepatitis B virus. As to the kind of experiment: Antiviral activity against HBV infected in human HepG2.2.15 cells assessed as reduction in virus induced cytopathogenicity by Southern blot analysis. The series is classed as functional, organism-based.
In series [16] the test system is Human betaherpesvirus 5. In words: Antiviral activity against HCMV assessed as inhibition of viral growth. The series is classed as functional, organism-based.
The next series concerns Murid betaherpesvirus 1. As to the kind of experiment: Antiviral activity against MCMV Smith infected in MEF cells assessed as reduction in plaque formation by plaque reduction assay. The series is classed as functional. The note with it: Murid betaherpesvirus 1, Smith, read-out: ED50 (the source's name).
The subject of series [17] is Hepatitis B virus. In words: Antiviral activity against HBV assessed as inhibition of viral growth. The series is classed as functional, organism-based.
The test system of series [18] is Human immunodeficiency virus 1. In words: Antiviral activity against HIV-1 HTLV-IIIB infected in human MT4 cells assessed as inhibition of viral replication incubated for 4 days by immunofluorescence assay. The series is classed as functional, organism-based. The note with it: Human immunodeficiency virus 1, HTLV-IIIB, MT4, 96 h.
Series [19] has as its system Human betaherpesvirus 5. As to the kind of experiment: Antiviral activity against HCMV AD169 infected in HELF cells by plaque reduction assay. The series is classed as functional, organism-based. The note with it: Human betaherpesvirus 5, AD169, HELF.
The test system of series [20] is Human immunodeficiency virus 1. As to the kind of experiment: Antiviral activity against HIV-1 III B infected in PBMC assessed as inhibition of viral growth. The series is classed as functional, organism-based. To be noted: Human immunodeficiency virus 1, III B.
Series [21] has as its system Human immunodeficiency virus 2. In words: Antiviral activity against HIV-2 D194 infected in PBMC assessed as inhibition of viral growth. The series is classed as functional, organism-based. To be noted: Human immunodeficiency virus 2, D194, PBMC.
Series [22] has as its system Human immunodeficiency virus 1. In words: Antiviral activity against HIV-1 HTLV-IIIB infected in human MT4 cells assessed as reduction in virus induced cytopathogenicity by immunofluorescence assay. The series is classed as functional, organism-based. The note with it: Human immunodeficiency virus 1, HTLV-IIIB.
Series [23] has as its system Human alphaherpesvirus 2. As to the kind of experiment: Potency index, ratio of acyclovir EC50 to test compound EC50 for antiviral activity against HSV-2 186 infected in African green monkey Vero cells assessed as reduction in virus induced cytopathogenicity by plaque reduction assay. The series is classed as functional.
Series [24] concerns Human betaherpesvirus 5. As to the kind of experiment: Antiviral activity against HCMV AD169 infected in HEL cells assessed as reduction in virus induced cytopathogenicity by plaque reduction assay. The series is classed as functional, organism-based. To be noted: Human betaherpesvirus 5, AD169, HEL.
Series [25] has as its system Human alphaherpesvirus 1. As to the kind of experiment: Potency index, ratio of acyclovir EC50 to test compound EC50 for antiviral activity against HSV-1 KOS infected in African green monkey Vero cells assessed as reduction in virus induced cytopathogenicity by plaque reduction assay. The series is classed as functional.
Series [26] has as its system Human alphaherpesvirus 2. As to the kind of experiment: Antiviral activity against HSV-2 assessed as inhibition of cytopathic effect at 5.8 ug per well relative to control. The series is classed as functional.
The subject of series [27] is Human immunodeficiency virus. As to the kind of experiment: Antiviral activity against HIV infected in human MT4 cells by plaque reduction assay. The series is classed as functional, organism-based. The note with it: Human immunodeficiency virus 1, MT4.
A short description of series [28]: Cytotoxicity against African green monkey Vero cells assessed as inhibition of cell growth at 132.6 microg/ml relative to control. To be noted: chlorocebus sabaeus, at 132.6 µg/mL. The series is classed as toxicity, cell-based.

Turning to `Nc1nc(F)nc2c1ncn2[C@@H]1O[C@H](CO)[C@H]1CO`, the values for the IC50 (in series [1]; in the series with Human alphaherpesvirus 2 [2]) were 0.016 µM and 3.9 µM, respectively.
On to `[N-]=[N+]=N[C@H]1[C@H](n2cnc3c(N)ncnc32)O[C@@H]1CO`, for which, in [3], the IC50 amounted to 6 µg/mL (≈ 22.9 µM).
Take `Nc1nc2c(ncn2COCCO)c(=O)[nH]1` [ACYCLOVIR]: the ED50 in the series on Human alphaherpesvirus 1 [4] and in the series on Human alphaherpesvirus 1 [12] was >500 mg/kg.day throughout. In the series on Human alphaherpesvirus 2 [2], the IC50 was determined as 12 µM. The EC50 in the series on Human alphaherpesvirus 2 [5] was 0.18 µg/mL (≈ 0.799 µM); in the series on Cytomegalovirus it was 40 µg/mL (≈ 178 µM); with Human alphaherpesvirus 1 [6], 0.32 µg/mL (≈ 1.42 µM); in the series with Human alphaherpesvirus 1 [7] it was 0.2 µM; with Human alphaherpesvirus 1 [8] it was 0.2 µM; in the series with Human alphaherpesvirus 1 [9] it was 0.2 µM. The EC50 with Human alphaherpesvirus 2 [10] worked out at 0.39 µg/mL (≈ 1.73 µM); with Human alphaherpesvirus 1 [11], 0.41 µg/mL (≈ 1.82 µM).
Take `Nc1ncnc2c1ncn2[C@H]1C[C@@H](CO)C1`: the EC50 in series [13] turned out to be 0.8 µM.
For `Nc1nc(Cl)nc2c1ncn2C1CC2(C1)CC(CO)(CO)C2`, the Ratio in the series with HUVEC is given as 3.59.
As for `Nc1nc2c(ncn2N2C[C@H](CO)[C@H]2CO)c(=O)[nH]1`, the EC50 in [14] came out at 0.46 µg/mL (≈ 1.73 µM); with Human alphaherpesvirus 1 [6], 5.36 µg/mL (≈ 20.1 µM); with Human alphaherpesvirus 2 [10] it was 6.32 µg/mL (≈ 23.7 µM).
For `Nc1ccn([C@@H]2CS[C@H](CO)O2)c(=O)n1` [LAMIVUDINE], the EC50 with Human alphaherpesvirus 2 [5] came out at 0.39 µg/mL (≈ 1.7 µM); in the series on Hepatitis B virus [15], 0.009 µg/mL (≈ 0.0393 µM).
In the case of `Nc1nc(=O)c2ncn([C@@H]3C[C@H](CO)[C@H]3CO)c2[nH]1` [LOBUCAVIR], the IC50 was 0.4 µM in the series with Human betaherpesvirus 5 [16]; 0.3 µM in [13]; 0.86 µM in the series with Hepatitis B virus [17]; 0.047 µM in the series with Human alphaherpesvirus 1 [6]; 0.08 µM in the series with Human alphaherpesvirus 2 [10]. In the series on Murid betaherpesvirus 1, the EC50 stood at 0.1 µg/mL (≈ 0.377 µM).
As for `Nc1nc(N)c2ncn([C@@H]3O[C@H](CO)[C@H]3CO)c2n1`, in [18], the EC50 came to 2.2 µM. Besides, in the series with Human betaherpesvirus 5 [19], the IC50 is 1 µM.
With `Nc1ncnc2c1ncn2[C@H]1C[C@@](F)(CO)C1`, the IC50 amounted to 3.9 µM in [20] and 1.5 µM in series [21].
As to `Nc1nc(Cl)nc2c1ncn2[C@H]1C[C@H](CO)C1`, the Ratio in the series with HUVEC is given as 3.32.
Turning to `O=c1[nH]c(=O)c2ncn([C@@H]3O[C@H](CO)[C@H]3CO)c2[nH]1`, the EC50 in [18] was > 100 µM. Further, the IC50 with Human betaherpesvirus 5 [19] was > 50 µM.
Turning to `O=c1[nH]cnc2c1ncn2[C@H]1C[C@@](F)(CO)C1`, the IC50 in [20] was 95 µM; in series [21], 46 µM.
For the molecule `O=c1[nH]cnc2c1ncn2[C@H]1CC[C@@H](CO)O1` [DIDANOSINE], the EC50 in [14] and in series [22] was 0.46 µg/mL (≈ 1.95 µM) in each case.
For the molecule `Nc1ncnc2c1ncn2[C@@H]1C[C@](F)(CO)[C@H]1CO`, the EC50 turned out to be 1.33 µg/mL (≈ 4.98 µM) with Human alphaherpesvirus 2 [5]; 3.73 µg/mL (≈ 14 µM) in [22]; 0.41 µg/mL (≈ 1.53 µM) in the series on Hepatitis B virus [15]; 0.18 µg/mL (≈ 0.673 µM) in the series with Human betaherpesvirus 5 [24]; 2.72 µg/mL (≈ 10.2 µM) in the series on Human alphaherpesvirus 1 [11]. In addition, the “Ratio EC50” value with Human alphaherpesvirus 2 [23] and with Human alphaherpesvirus 1 [25] was 7 in each case.
On to `Nc1ncnc2c1ncn2[C@@H]1O[C@H](CO)[C@H]1CO`, for which the EC50 is 1.4 µg/mL (≈ 5.57 µM) in series [14] and 1.4 µM in series [18]. Besides, the IC50 with Human betaherpesvirus 5 [16] stood at 13 µg/mL; in series [1], 1.7 µM; in [27], 4.3 µg/mL (≈ 17.1 µM); with Human betaherpesvirus 5 [19], 13 µM; in [3] it was 0.5 µg/mL (≈ 1.99 µM). Moreover, the inhibition at 5.8 µg/disc in the series on Human alphaherpesvirus 2 [26] is 50%. Moreover, the inhibition at 132.6 microg/ml in series [28] is 50%.
In the case of `Nc1nc2c(ncn2[C@H]2C[C@@H](CO)C2)c(=O)[nH]1`, in series [13], the EC50 is 8 µM.

A word on the IC50: it is the concentration that gives 50% inhibition. Usually inhibition stands for the change of the read-out against control, counted positive when it falls.
